Laboratory results: patent publication US20230365533A1, “BICYCLOHEPTANE PYRROLIDINE OREXIN RECEPTOR AGONISTS” (MERCK SHARP & DOHME CORP., priority 2021, published 2023)

biological target: T1, human OX2R (Homo sapiens, UniProt O43614); assay: IPOne (IP-1) orexin receptor agonist assay in CHO cells expressing human OX2R; assay type: cell-based; settings: CHO, percent of mean max effect of a reference compound at 1 uM with 100% activity vs Orexin A, human OX2R
T1 construct: expressed in transfected cells; host or cells: CHO (Chinese hamster ovary) cells, grown under G418 selection
T1 sequence (O43614 1-444): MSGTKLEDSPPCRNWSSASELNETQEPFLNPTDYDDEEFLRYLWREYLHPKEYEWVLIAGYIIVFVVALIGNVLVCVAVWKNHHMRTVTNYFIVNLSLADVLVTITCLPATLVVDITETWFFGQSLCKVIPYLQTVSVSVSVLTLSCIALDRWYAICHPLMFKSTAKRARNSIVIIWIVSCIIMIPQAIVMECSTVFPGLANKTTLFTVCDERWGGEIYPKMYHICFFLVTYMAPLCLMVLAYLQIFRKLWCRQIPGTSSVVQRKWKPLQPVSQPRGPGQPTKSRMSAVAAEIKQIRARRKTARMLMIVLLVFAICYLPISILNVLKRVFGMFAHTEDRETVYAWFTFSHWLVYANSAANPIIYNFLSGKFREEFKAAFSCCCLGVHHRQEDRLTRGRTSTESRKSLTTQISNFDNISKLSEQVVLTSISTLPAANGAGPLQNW
Source text: The utility of the compounds in accordance with the present invention as orexin receptor OX1R and/or OX2R agonists may be readily determined without undue experimentation by methodology well known in the art. Both the OX1R and/or OX2R G-coupled protein receptors (GPCRs) couple through the Gaq signaling pathway, which ultimately promotes calcium mobilization via inositol triphosphate (IP3) production. The half-life of IP-3 is relatively short, being rapidly metabolized to inositol monophosphate (IP-1), which can be readily detected using a commercially available assay kit (IP-One; Cisbio; cat #621PAPEC) coupled with a cell line expressing the target receptor(s) of interest. The utility of the compounds in accordance with the present invention as orexin receptor OX1R and/or OX2R agonists may be determined utilizing this assay.
In a typical experiment, the OX1 and OX2 receptor agonist activity is determined in accordance with the following general experimental method. Chinese hamster ovary (CHO) cells expressing human OX1R and/or the human OX2R were grown in Iscove's modified DMEM containing glutaMAX™, 1% G418, 100 U/mL penicillin, 100 μg/mL streptomycin and 10% heat-inactivated qualified fetal bovine serum (FBS). The OX2R cells were seeded at 10,000 cells/well/50 μL and the OX1R cells were seeded at 20,000 cells/well/50 μL into 384-well white tissue culture plates (Greiner; cat #781080). All cell/media reagents were from GIBCO-Invitrogen Corp. The seeded cell plate(s) were incubated at 37° C. with 5% CO2 and 85% humidity for 20-24 hours. On the day of the assay, assay-ready compound plates were prepared using an acoustic liquid handler (ECHO; Labcyte), which dispensed sufficient volume of test compound stock (10 mM in DMSO) or 100% DMSO to prepare 10 point, ½-log dilutions in a final volume of 202.5 nL/well in all test wells of a 384-well diamond plate (Labcyte). Following completion of assay-ready plates, importantly, the next three steps were performed with minimal delay: 1) 20 μl of 1×stimulation buffer was added to the compound plate using a Multidrop Combi (small cassette, Thermo Fisher Scientific cat #24073290); 2) culture medium was removed from the cell plate using the Bluewasher plate washer (gentle spin; BlueCatBio); 3) 14 μl of compound/stimulation buffer mixture was added to the cell plate using a Bravo liquid handler (Agilent) prior to incubating cell plates at 37° C. with 5% CO2 and 85% humidity for 1 or 2 hours (OX1R and OX2R, respectively). During this incubation, IP-one detection reagents were prepared (38:1:1 lysis buffer:D2:AB-cryptate reagents). Six μL of mixed detection reagents were added to the cell plate using a Multidrop Combi (small cassette, Thermo Fisher Scientific cat #24073290) and incubated 60 minutes at room temperature in the dark. Fluorescence signal was detected using an Envision plate reader (Perkin Elmer) [LANCE/DELFIA Dual Enh (Em: APC 665; Ex: Cy5 620)].
For each compound, data were fit to a four parameter logistic fit (ActivityBase software) and the EC50 was reported as the inflection point of the resulting curve. Percent effect for each test compound was determined as the percentage of sample raw value/mean max effect, where the mean max effect was derived from the mean raw value of 32 control wells per assay plate (using Orexin A (cat #003-30) at 1 μM for human OX1R and a reference compound at 1 uM with 100% activity previously established by comparison to Orexin A for human OX2R). The intrinsic orexin receptor agonist activity of a compound which may be used in the present invention may be determined by these assays.

| Emax | Structure (SMILES) |
| --- | --- |
| 94.6% | COC(=O)N1CC[C@H](NS(C)(=O)=O)[C@@H]1COC1CCC2(c3ncccn3)CC2C1 (mixture of isomers) [Example 21, methyl (2R,3S)-3-(methylsulfonamido)-2-(((6-(pyrimidin-2-yl)bicyclo[4.1.0]heptan-3-yl)oxy)methyl)pyrrolidine-1-carboxylate] |

same assay, conditions: IPOne assay, CHO cells expressing human OX2R, 2 hours incubation; read-out: hoX2R_IP IC50

| Structure (SMILES) | IC50 |
| --- | --- |
| COC[C@@H]1C[C@H](NS(C)(=O)=O)[C@H](CO[C@H]2CC[C@@]3(c4ncc(F)cn4)C[C@H]3C2)N1C(=O)OC [Example 132, methyl (2R,3S,5S)-2-((((1S,3S,6R)-6-(5-fluoropyrimidin-2-yl)bicyclo[4.1.0]heptan-3-yl)oxy)methyl)-5-(methoxymethyl)-3-(methylsulfonamido)pyrrolidine-1-carboxylate] | 9.7 nM |
| COC(=O)N1[C@H](C)C[C@H](NS(=O)(=O)CF)[C@@H]1COC1CCC2(c3ncc(Cl)cn3)CC2C1 (stereo partly drawn) [Example 94, methyl (2R,3S,5R)-2-(((6-(5-chloropyrimidin-2-yl)bicyclo[4.1.0]heptan-3-yl)oxy)methyl)-3-((fluoromethyl)sulfonamido)-5-methylpyrrolidine-1-carboxylate] | 1.7 nM |
| C[C@@H]1C[C@H](NS(C)(=O)=O)[C@H](CO[C@H]2CC[C@@]3(c4ncc(F)cn4)C[C@H]3C2)N1C(=O)OCC1CC(F)C1 (stereo partly drawn) [Example 49, (3-fluorocyclobutyl)methyl (2R,3S,5R)-2-((((1S,3S,6R)-6-(5-fluoropyrimidin-2-yl)bicyclo[4.1.0]heptan-3-yl)oxy)methyl)-5-methyl-3-(methylsulfonamido)pyrrolidine-1-carboxylate] | 1.1 nM |
| CCS(=O)(=O)N[C@H]1[C@H]2CCC[C@H]2N(C(=O)OC)[C@H]1COC1CCC2(c3ncc(F)cn3)CC2C1 (stereo partly drawn) [Example 129, methyl (2R,3S,3aS,6aR)-3-(ethylsulfonamido)-2-(((6-(5-fluoropyrimidin-2-yl)bicyclo[4.1.0]heptan-3-yl)oxy)methyl)hexahydrocyclopenta[b]pyrrole-1(2H)-carboxylate] | 0.9 nM |
| COC(=O)N1[C@H](C)C[C@H](NS(C)(=O)=O)[C@@H]1COC1CCC2(c3nccs3)CC2C1 (stereo partly drawn) [Example 149, methyl (2R,3S,5R)-5-methyl-3-(methylsulfonamido)-2-(((6-(thiazol-2-yl)bicyclo[4.1.0]heptan-3-yl)oxy)methyl)pyrrolidine-1-carboxylate] | 179 nM |

Next, values leading:

| IC50 | Structure (SMILES) |
| --- | --- |
| 2.3 nM | COC(=O)N1[C@H](C(F)F)C[C@H](NS(=O)(=O)C2CC2)[C@@H]1COC1CCC2(c3ncc(F)cn3)CC2C1 (stereo partly drawn) [Example 116, methyl (2R,3S,5S)-3-(cyclopropanesulfonamido)-5-(difluoromethyl)-2-(((6-(5-fluoropyrimidin-2-yl)bicyclo[4.1.0]heptan-3-yl)oxy)methyl)pyrrolidine-1-carboxylate] |
| 46.5 nM | COC(=O)N1[C@H](C)C[C@H](NS(=O)(=O)CC(C)C)[C@@H]1CO[C@H]1CC[C@@]2(c3ncc(F)cn3)C[C@H]2C1 [Example 35, methyl (2R,3S,5R)-2-((((1S,3S,6R)-6-(5-fluoropyrimidin-2-yl)bicyclo[4.1.0]heptan-3-yl)oxy)methyl)-5-methyl-3-((2-methylpropyl)sulfonamido)pyrrolidine-1-carboxylate] |
| 11.1 nM | COC(=O)N1[C@H](C)C[C@H](NS(C)(=O)=O)[C@@H]1COC1CCC2(c3ncc(Cl)cn3)CC2C1 (stereo partly drawn) [Example 140, methyl (2R,3S,5R)-2-(((6-(5-chloropyrimidin-2-yl)bicyclo[4.1.0]heptan-3-yl)oxy)methyl)-5-methyl-3-(methylsulfonamido)pyrrolidine-1-carboxylate] |
| 1620 nM | COC(=O)N1CC[C@H](NS(C)(=O)=O)[C@@H]1COC1CCC2(c3ncccn3)CC2C1 (mixture of isomers) [Example 21, methyl (2R,3S)-3-(methylsulfonamido)-2-(((6-(pyrimidin-2-yl)bicyclo[4.1.0]heptan-3-yl)oxy)methyl)pyrrolidine-1-carboxylate] |
| 0.77 nM | CC(OC(=O)N1[C@H](C)C[C@H](NS(C)(=O)=O)[C@@H]1CO[C@H]1CC[C@@]2(c3ncc(F)cn3)C[C@H]2C1)C(F)F (stereo partly drawn) [Example 63, 1,1-Difluoropropan-2-yl (2R,3S,5R)-2-((((1S,3S,6R)-6-(5-fluoropyrimidin-2-yl)bicyclo[4.1.0]heptan-3-yl)oxy)methyl)-5-methyl-3-(methylsulfonamido)pyrrolidine-1-carboxylate] |
